Converted amounts (≈) assume the structure as drawn. Bounds are passed on as bounds.

The first test relates to Streptococcus pyogenes. In words: In vitro minimum inhibitory concentration (MIC) vs. Strep. pyogenes. It counts as cell-based. The conditions noted are these: Streptococcus pyogenes, read-out: MIC vs. Strep. pyogenes. A digest of the protocol: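 Broth inoculated with bacteria and test antibiotic, incubated overnight and read visually; MIC is the lowest concentration preventing turbidity. Test preparations also contain some of the corresponding tetrazole tautomer.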
What is called MIC is the least concentration at which growth counts as inhibited. Consider `CC1(C)S[C@@H]2[C@H](NC(=O)[C@H](NC(N)=O)c3ccccc3)C(=O)N2[C@H]1c1nn[nH]n1` [D-2-ureido-2-phenylacetyl, 6-(D-2-Ureido-2-phenylacetamido)-2,2-dimethyl-3-(5-tetrazolyl)-penam], for which the minimal inhibitory concentration (MIC) was found to be 0.1 µg/mL (≈ 0.24 µM). With `CC1(C)S[C@@H]2[C@H](NC(=O)[C@H](NC(=O)c3ccc[nH]3)c3ccccc3)C(=O)N2[C@H]1c1nnn[nH]1`, the MIC is less than 0.1 µg/mL.

Turning to `CC1(C)S[C@@H]2[C@H](NC(=O)[C@H](NC(=O)CCNC(=O)c3ccco3)c3ccccc3)C(=O)N2[C@H]1c1nnn[nH]1`, the MIC was less than 0.1 µg/mL. As for `CC1(C)S[C@@H]2[C@H](NC(=O)[C@H](NC(=O)Nc3ccc(Cl)cc3)c3ccc(O)cc3)C(=O)N2[C@H]1c1nnn[nH]1`, the MIC is less than 0.1 µg/mL. As for `CC1(C)S[C@@H]2[C@H](NC(=O)Nc3ccccc3)C(=O)N2[C@H]1c1nnn[nH]1` [3-phenylcarbamoyl, 6-(3-Phenylureido)-2,2-dimethyl-3-(5-tetrazolyl)penam], the MIC is less than 0.1 µg/mL.

On to `COc1ccc(C(=N)NC(=O)NCC(=O)N[C@@H]2C(=O)N3[C@@H]2SC(C)(C)[C@@H]3c2nnn[nH]2)cc1`, for which the MIC worked out at 0.1 µg/mL (≈ 0.211 µM). The same measure, in the same setting: under `CC1(C)S[C@@H]2[C@H](NC(=O)CNC(=O)NC(=N)c3ccccc3)C(=O)N2[C@H]1c1nnn[nH]1` [2-(3-[benzimidoyl]ureido)-acetyl] stands less than 0.1 µg/mL; under `CC1(C)S[C@@H]2[C@H](NC(=O)[C@H](NC(=O)CNC(=O)c3ccc([N+](=O)[O-])cc3)c3ccccc3)C(=O)N2[C@H]1c1nnn[nH]1`, less than 0.1 µg/mL; under `CC1(C)S[C@@H]2[C@H](NC(=O)[C@H](NC(=O)Cc3cccs3)c3ccccc3)C(=O)N2[C@H]1c1nnn[nH]1`, 0.1 µg/mL (≈ 0.201 µM). On the same count and under the same terms, under `CC1(C)S[C@@H]2[C@H](NC(=O)C(C(=O)O)c3cccs3)C(=O)N2[C@H]1c1nnn[nH]1` (stereo partly shown) [2-carboxy-2-(2-thienyl)acetyl, 6-(2-Carboxy-2-[2-thienyl]acetamido)-2,2-dimethyl-3-(5-tetrazolyl)penam] stands 0.1 µg/mL (≈ 0.245 µM); under `CC1(C)S[C@@H]2[C@H](NC(=O)Cc3sccc3CN)C(=O)N2[C@H]1c1nnn[nH]1` [2-(3-aminomethyl-2-thienyl)-acetyl, 6-(2-[3-Aminomethyl-2-thienyl]acetamido)-2,2-dimethyl-3-(5-tetrazolyl)penam], no more than 0.1 µg/mL; under `CC1(C)S[C@@H]2[C@H](NC(=O)[C@H](N)C3=CCC=CC3)C(=O)N2[C@H]1c1nnn[nH]1` [D-2-amino-2-(1,4-cyclohexadienyl)acetyl, 6-(D-2-Amino-2-[1,4-cyclohexadienyl]acetamido)-2,2-dimethyl-3-(5-tetrazolyl)penam], less than 0.1 µg/mL. For `CC1(C)S[C@@H]2[C@H](NC(=O)[C@H](NC(=O)CNC(=N)c3cccc(S(N)(=O)=O)c3)c3ccccc3)C(=O)N2[C@H]1c1nnn[nH]1`, the MIC was less than 0.1 µg/mL.

As for `CC1(C)S[C@@H]2[C@H](NC(=O)[C@H](NC(=O)CNC(=N)c3ccc([N+](=O)[O-])cc3)c3ccccc3)C(=O)N2[C@H]1c1nnn[nH]1`, the MIC is less than 0.1 µg/mL. As to `CC1(C)S[C@@H]2[C@H](NC(=O)C(=O)c3ccccc3)C(=O)N2[C@H]1c1nnn[nH]1` [phenylglyoxyloyl], the MIC was less than 0.1 µg/mL. Turning to `CC1(C)S[C@@H]2[C@H](NC(=O)[C@H](NC(=O)CNC(=N)c3nc4ccccc4[nH]3)c3ccccc3)C(=O)N2[C@H]1c1nnn[nH]1`, the minimum inhibitory concentration (MIC) is less than 0.1 µg/mL. The same measure, in the same setting: under `CC1(C)S[C@@H]2[C@H](NC(=O)[C@H](NC(=O)CNC(=N)c3ccncc3)c3ccc(O)cc3)C(=O)N2[C@H]1c1nnn[nH]1` [6-(D-2-[2-(4-Pyridinecarboxamidino)acetamido]-2-(p-hydroxyphenyl]acetamido)-2,2-dimethyl-3-(5-tetrazolyl)penam] stands less than 0.1 µg/mL; under `CC1(C)S[C@@H]2[C@H](NC(=O)[C@H](NC(=O)OCc3ccccc3)c3ccccc3)C(=O)N2[C@H]1c1nnn[nH]1`, less than 0.1 µg/mL. Regarding `CC1(C)S[C@@H]2[C@H](NC(=O)[C@H](NC(=O)c3ccc(N)cc3)c3ccccc3)C(=O)N2[C@H]1c1nn[nH]n1` [D-2-(4-aminobenzamido)-2-phenylacetyl, 6-(D-2-[4-Aminobenzamido]-2-phenylacetamido)-2,2-dimethyl-3-(5-tetrazolyl)penam], the minimal inhibitory concentration (MIC) was less than 0.1 µg/mL. In the case of `CC1(C)S[C@@H]2[C@H](NC(=O)[C@H](NC(=O)CNS(=O)(=O)c3ccccc3)c3ccccc3)C(=O)N2[C@H]1c1nn[nH]n1`, the MIC is less than 0.1 µg/mL. With `CC1(C)S[C@@H]2[C@H](NC(=O)CNC(=N)c3cccs3)C(=O)N2[C@H]1c1nnn[nH]1` [2-(2-thiophenecarboxamidino)acetyl], the MIC was less than 0.1 µg/mL. On to `CC1(C)S[C@@H]2[C@H](NC(=O)[C@H](NC(=O)CCNC(=N)c3cc(Br)cc(Br)c3)c3ccccc3)C(=O)N2[C@H]1c1nnn[nH]1`, for which the minimum inhibitory concentration (MIC) is less than 0.1 µg/mL. The same measure, in the same setting: under `CC1(C)S[C@@H]2[C@H](NC(=O)[C@H](NC(=O)CNC(=N)c3ccccc3)c3ccccc3)C(=O)N2[C@H]1c1nnn[nH]1` [6-(D-2-[2-(Benzamidino)acetamido]-2-phenylacetamido)-2,2-dimethyl-3-(5-tetrazolyl)penam] stands less than 0.1 µg/mL. In the case of `CC1(C)S[C@@H]2[C@H](NC(=O)Cc3sccc3CN=[N+]=[N-])C(=O)N2[C@H]1c1nnn[nH]1` [2-(3-azidomethyl-2-thienyl-acetyl, 6-(2-[3-Azidomethyl-2-thienyl]acetamido)-2,2-dimethyl-3-(5-tetrazolyl)penam], the minimum inhibitory concentration (MIC) was no more than 0.1 µg/mL.

The test is the same for the next values; noted with them: Streptococcus pyogenes; Examples; read-out: MIC against Strep. pyogenes.
In the case of `CC1(C)S[C@@H]2[C@H](NC(=O)[C@H](NC(=O)Nc3ccccc3)c3ccc(O)cc3)C(=O)N2[C@H]1c1nnn[nH]1` [6-(2-[3-Phenylureido]-2-[p-hydroxyphenyl]acetamido)-2,2-dimethyl-3-(5-tetrazolyl)penam], the minimum inhibitory concentration (MIC) is less than 0.1 µg/mL.

Staying with this test, now noted: Streptococcus pyogenes; Table II; two-fold serial dilution, Brain-Heart Infusion broth, overnight; read-out: MIC vs. Strep. pyogenes.
With `CC1(C)S[C@@H]2[C@H](NC(=O)[C@H](NC(=O)CCNC(=S)Nc3ccccc3)c3ccccc3)C(=O)N2[C@H]1c1nnn[nH]1`, the MIC is 1.56 µg/mL (≈ 2.69 µM).

As to `CC1(C)S[C@@H]2[C@H](NC(=O)[C@H](NC(=O)c3ccncc3)c3ccccc3)C(=O)N2[C@H]1c1nnn[nH]1`, the minimum inhibitory concentration (MIC) is 3.12 µg/mL (≈ 6.52 µM).

Turning to `CC1(C)S[C@@H]2[C@H](NC(=O)[C@H](NC(=O)NC(=N)N)c3ccc(O)cc3)C(=O)N2[C@H]1c1nnn[nH]1` [6-(D-2-[3-guanylureido]-2-[4-hydroxyphenyl]acetamido)-2,2-dimethyl-3-(5-tetrazolyl)-penam], the MIC came out at 0.004 µg/mL (≈ 0.00843 µM). Turning to `CC1(C)S[C@@H]2[C@H](NC(=O)[C@H](NC(=O)C(=O)Oc3ccccc3)c3ccccc3)C(=O)N2[C@H]1c1nnn[nH]1`, the MIC turned out to be 25 µg/mL (≈ 47.9 µM). Turning to `CC1(C)S[C@@H]2[C@H](NC(=O)[C@H](N)c3ccc(F)cc3)C(=O)N2[C@H]1c1nnn[nH]1` [D-2-amino-2-(p-fluorophenyl)acetyl, 6-(D-2-amino-2-[p-fluorophenyl]acetamido)-2,2-dimethyl-3-(5-tetrazolyl)penam], the minimum inhibitory concentration (MIC) is 3.12 µg/mL (≈ 7.97 µM). With `CC1(C)S[C@@H]2[C@H](NC(=O)[C@H](NC(=O)CNC(=N)c3cc(Br)cc(S(N)(=O)=O)c3)c3ccccc3)C(=O)N2[C@H]1c1nnn[nH]1`, the MIC turned out to be 0.004 µg/mL (≈ 0.00578 µM).

Take `CCN=C(NCC)SCC(=O)NC(=O)N[C@@H](C(=O)N[C@@H]1C(=O)N2[C@@H]1SC(C)(C)[C@@H]2c1nn[nH]n1)c1ccccc1` [6-(D-2-[3-(2-(N,N'-diethylguanylthio]acetyl)ureido]-2-phenylacetamido)-2,2-dimethyl-3-(5-tetrazolyl)penam]: the MIC worked out at 0.004 µg/mL (≈ 0.00679 µM). For `CC1(C)S[C@@H]2[C@H](NC(=O)[C@@H](c3ccccc3)N3C(=O)c4ccccc4C3=O)C(=O)N2[C@H]1c1nnn[nH]1` [D-2-phthalimido-2-phenylacetyl, 6-(D-2-Phthalimido-2-phenylacetamido)-2,2-dimethyl-3-(5-tetrazolyl)penam], the MIC is 0.004 µg/mL (≈ 0.00794 µM). For the compound `CC1(C)S[C@@H]2[C@H](NC(=O)C(N)c3cccc([N+](=O)[O-])c3)C(=O)N2[C@H]1c1nnn[nH]1` (mixture of isomers) [DL-2-amino-2-(m-nitrophenyl)acetyl], the minimal inhibitory concentration (MIC) was 0.004 µg/mL.

Consider `CC1(C)S[C@@H]2[C@H](NC(=O)[C@H](NC(=O)NC(=O)OCc3ccccc3)c3ccccc3)C(=O)N2[C@H]1c1nn[nH]n1`, for which the minimal inhibitory concentration (MIC) amounted to 0.004 µg/mL (≈ 0.00726 µM). Regarding `CC1(C)S[C@@H]2[C@H](NC(=O)C(C(=O)O)c3ccccc3)C(=O)N2[C@H]1c1nnn[nH]1` (stereo partly shown) [2-carboxy-2-phenylacetyl, 6-(2-Carboxy-2-phenylacetamido)-2,2-dimethyl-3-(5-tetrazolyl)penam], the MIC was determined as 0.002 µg/mL (≈ 0.00497 µM). As to `Cc1cc(C)cc(C(=N)NCC(=O)N[C@@H]2C(=O)N3[C@@H]2SC(C)(C)[C@@H]3c2nnn[nH]2)c1` [2-(3,5-dimethylbenzamidino)acetyl], the MIC amounted to 0.39 µg/mL (≈ 0.91 µM).

Turning to `CC1(C)S[C@@H]2[C@H](NC(=O)[C@H](NC(=O)c3ccc([N+](=O)[O-])cc3)c3ccccc3)C(=O)N2[C@H]1c1nn[nH]n1` [D-2-(4-nitrobenzamido)-2-phenylacetyl, 6-(D-2-[4-nitrobenzamido]-2-phenylacetamido)-2,2-dimethyl-3-(5-tetrazolyl)penam], the MIC amounted to 0.004 µg/mL (≈ 0.00765 µM). Still for that read-out and setting: the same measure for `CN=C(NC)SCC(=O)N[C@@H](C(=O)N[C@@H]1C(=O)N2[C@@H]1SC(C)(C)[C@@H]2c1nn[nH]n1)c1ccccc1` [6-(D-2-[N,N'-dimethylamidinothio)acetamido]-2-phenylacetamido)-2,2-dimethyl-3-(5-tetrazolyl)penam]: 0.004 µg/mL (≈ 0.00773 µM); for `CC1(C)S[C@@H]2[C@H](NC(=O)[C@H](NC(=S)NC(=O)c3ccccc3)c3ccccc3)C(=O)N2[C@H]1c1nn[nH]n1` [2-(3-benzoylthioureido)-2-phenylacetyl]: 1.56 µg/mL (≈ 2.91 µM); for `CC1(C)S[C@@H]2[C@H](NC(=O)C(Cc3ccccc3)NC(=N)c3ccncc3)C(=O)N2[C@H]1c1nnn[nH]1` (stereo partly shown): 0.2 µg/mL (≈ 0.407 µM). The same measure, in the same setting: under `CC(=O)NC(=S)N[C@@H](C(=O)N[C@@H]1C(=O)N2[C@@H]1SC(C)(C)[C@@H]2c1nn[nH]n1)c1ccccc1` stands 3.2 µg/mL (≈ 6.74 µM).

Still in this test, the particulars now being: Streptococcus pyogenes; Table IV; read-out: MIC vs. Strep. pyogenes.
Turning to `CC1(C)S[C@@H]2[C@H](N3CN[C@H](c4ccccc4)C3=O)C(=O)N2[C@H]1c1nnn[nH]1` [6-(5-Oxo-4-phenyl-1-imidazolidinyl)-2,2-dimethyl-3-(5-tetrazolyl)penam], the MIC stood at 6.25 µg/mL (≈ 16.2 µM).

These data come from patent US4115385A, “Antibacterial 3-(5-tetrazolyl) penam compounds” (Pfizer Inc., priority 1977, dated 1978).
